The values below are quoted from earlier work in US9890151B2, “3,5-dichloro,4-(3,4-(cyclo-)alkoxyphenyl)- 2-carbonyloxy)ethyl)pyridine derivatives as PDE-4 inhibitors” (CHIESI FARMACEUTICI S.p.A., priority 2014, dated 2018).

Where [1] appears, read: patients with severe disease who have frequent exacerbations and mucus hypersecretion.

For `O=C(Nc1c(Cl)cncc1Cl)c1ccc(OC(F)F)c(OCC2CC2)c1` [roflumilast], the “reduction of the numbers of neutrophils in sputum” value (COPD patients, oral roflumilast given over 4 weeks) is 36%. Besides, under setting [1], the “improvement of FEV 1” value is “approximately 50 mL” and the reduction of exacerbation entry is listed as “about 15%”.
